# Calls of active or inactive are those of the source. The rule behind the calls is not given here.
# Tests used:
# RAW264.7 [1] = assay: Cytotoxicity against mouse RAW264.7 cells assessed as reduction in cell viability at 30 uM incubated for 24 hrs by MTT assay relative to control; format: toxicity, cell-based; conditions: raw264.7, 24 h
# [2] = Cytotoxicity against mouse RAW264.7 cells assessed as inhibition of cell growth incubated for 24 hrs by MTT assay; format: toxicity, cell-based
# RAW264.7 [3] = assay: Anti-inflammatory activity in LPS-stimulated mouse RAW264.7 cells assessed as reduction in iNOS expression by Western blot analysis; format: functional, cell-based; conditions: dose 2.5-10 µM
# RAW264.7 [4] = assay: Anti-inflammatory activity in LPS-stimulated mouse RAW264.7 cells assessed as reduction in COX-2 expression by Western blot analysis; format: functional, cell-based; conditions: dose 2.5-10 µM
# RAW264.7 [5] = assay: Inhibition of MAPK signaling pathway in LPS-stimulated mouse RAW264.7 cells assessed as decrease in phosphorylation of p38 MAPK at 2.5 to 10 uM by Western blot analysis; format: cell-based; conditions: dose 2.5-10 µM
# RAW264.7 [6] = assay: Inhibition of MAPK signaling pathway in LPS-stimulated mouse RAW264.7 cells assessed as decrease in phosphorylation of ERK at 2.5 to 10 uM by Western blot analysis; format: cell-based; conditions: dose 2.5-10 µM
# RAW264.7 [7] = assay: Inhibition of MAPK signaling pathway in LPS-stimulated mouse RAW264.7 cells assessed as decrease in phosphorylation of JNK at 2.5 to 10 uM by Western blot analysis; format: cell-based; conditions: dose 2.5-10 µM
# RAW264.7 [8] = assay: Inhibition of NFkappaB signaling pathway in LPS-stimulated mouse RAW264.7 cells assessed as decrease in NFkappaB protein level at 2.5 to 10 uM by Western blot analysis; format: cell-based; conditions: dose 2.5-10 µM
# RAW264.7 [9] = assay: Inhibition of NFkappaB signaling pathway in LPS-stimulated mouse RAW264.7 cells assessed as decrease in IkappaBalpha protein level at 2.5 to 10 uM by Western blot analysis; format: cell-based; conditions: dose 2.5-10 µM
# [10] = target: NACHT, LRR and PYD domains-containing protein 3 (Mus musculus) (UniProt Q8R4B8); assay: Inhibition of NLRP3 inflammasome activation in LPS-stimulated mouse RAW264.7 cells assessed as decrease in caspase-1 expression at 2.5 to 10 uM by Western blot analysis; format: cell-based; conditions: dose 2.5-10 µM
# [11] = target: NACHT, LRR and PYD domains-containing protein 3 (Mus musculus) (UniProt Q8R4B8); assay: Inhibition of NLRP3 inflammasome activation in LPS-stimulated mouse RAW264.7 cells assessed as downregulation of NLRP3 expression by Western blot analysis; format: cell-based; conditions: dose 2.5-10 µM
# [12] = target: NACHT, LRR and PYD domains-containing protein 3 (Mus musculus) (UniProt Q8R4B8); assay: Inhibition of NLRP3 inflammasome activation in LPS-stimulated mouse RAW264.7 cells assessed as downregulation of IL-1beta expression by Western blot analysis; format: cell-based; conditions: dose 2.5-10 µM
# RAW264.7 [13] = assay: Anti-inflammatory activity in LPS-stimulated mouse RAW264.7 cells assessed as inhibition of ROS production preincubated with compound for 1 hrs followed by LPS stimulation and measured after 23 hrs by DCFH-DA staining based confocal laser microscopic analysis; format: functional, cell-based; conditions: dose 2.5-10 µM, time 24.0 hrs
# RAW264.7 [14] = assay: Anti-inflammatory activity in LPS-stimulated mouse RAW264.7 cells assessed as inhibition of ROS production at 2.5 to 10 uM preincubated with compound for 1 hrs followed by LPS stimulation and measured after 23 hrs by DCFH-DA staining based flow cytometric analysis; format: functional, cell-based; conditions: dose 2.5-10 µM, time 24.0 hrs
# Mus musculus [15] = assay: (§1) Anti-inflammatory activity in LPS-induced BALB/c mouse model of […] assessed as attenuation of inflammatory cell infiltration in lungs at 5 to 20 mg/kg, po preadministered with compound for 3 days followed by LPS stimulation for 6 hrs after 1 hrs compound administration on day 3 by H&E staining based analysis; format: functional, organism-based; conditions: dose 5-20 mg/kg, time 3.0 day
# Mus musculus [16] = assay: as §1, with “lung alveolar hemorrhage” for “inflammatory cell infiltration in lungs”; format: functional, organism-based; conditions: dose 5-20 mg/kg, time 3.0 day
# Mus musculus [17] = assay: (§2) Anti-inflammatory activity in LPS-induced BALB/c mouse model of […] assessed as inhibition of LPS-induced increase in lung W/D ratio at 5 to 20 mg/kg, po preadministered with compound for 3 days followed by LPS stimulation for 6 hrs after 1 hrs compound administration on day 3; format: functional, organism-based; conditions: dose 5-20 mg/kg, time 3.0 day
# Mus musculus [18] = assay: as §2, with “increase in NO production in BALF at 5” for “increase in lung W/D ratio at 5”, “day 3 by Griess reagent based method” for “day 3”; format: functional, organism-based; conditions: dose 5-20 mg/kg, time 3.0 day
# Mus musculus [19] = assay: as §2, with “increase in IL-6 expression in BALF at 5” for “increase in lung W/D ratio at 5”, “day 3 by ELISA” for “day 3”; format: functional, organism-based; conditions: dose 5-20 mg/kg, time 3.0 day
# Mus musculus [20] = assay: as §2, with “increase in TNF-alpha expression in BALF at 5” for “increase in lung W/D ratio at 5”, “day 3 by ELISA” for “day 3”; format: functional, organism-based; conditions: dose 5-20 mg/kg, time 3.0 day
# Mus musculus [21] = assay: as §2, with “increase in NO production in serum at 5” for “increase in lung W/D ratio at 5”, “day 3 by Griess reagent based method” for “day 3”; format: functional, organism-based; conditions: dose 5-20 mg/kg, time 3.0 day
# Mus musculus [22] = assay: as §2, with “increase in IL-6 expression in serum at 5” for “increase in lung W/D ratio at 5”, “day 3 by ELISA” for “day 3”; format: functional, organism-based; conditions: dose 5-20 mg/kg, time 3.0 day
# Mus musculus [23] = assay: as §2, with “increase in TNF-alpha expression in serum at 5” for “increase in lung W/D ratio at 5”, “day 3 by ELISA” for “day 3”; format: functional, organism-based; conditions: dose 5-20 mg/kg, time 3.0 day
# Mus musculus [24] = assay: Anti-inflammatory activity in LPS-induced BALB/c mouse model of […] assessed as inhibition of iNOS expression preadministered orally with compound for 3 days followed by LPS stimulation for 6 hrs after 1 hrs compound administration on day 3 by Western blot analysis; format: functional, organism-based; conditions: dose 5-20 mg/kg, route po, time 3.0 day
# Mus musculus [25] = assay: Anti-inflammatory activity in LPS-induced BALB/c mouse model of […] assessed as inhibition of COX-2 expression preadministered orally with compound for 3 days followed by LPS stimulation for 6 hrs after 1 hrs compound administration on day 3 by Western blot analysis; format: functional, organism-based; conditions: dose 5-20 mg/kg, route po, time 3.0 day
# Mus musculus [26] = assay: In vivo inhibition of MAPK activation in LPS-induced BALB/c mouse model of […] assessed as inhibition of p38 MAPK phosphorylation preadministered orally with compound for 3 days followed by LPS stimulation for 6 hrs after 1 hrs compound administration on day 3 by Western blot analysis; format: functional; conditions: dose 5-20 mg/kg, route po, time 3.0 day
# Mus musculus [27] = assay: In vivo inhibition of MAPK activation in LPS-induced BALB/c mouse model of […] assessed as inhibition of ERK phosphorylation preadministered orally with compound for 3 days followed by LPS stimulation for 6 hrs after 1 hrs compound administration on day 3 by Western blot analysis; format: functional; conditions: dose 5-20 mg/kg, route po, time 3.0 day
# Mus musculus [28] = assay: In vivo inhibition of MAPK activation in LPS-induced BALB/c mouse model of […] assessed as inhibition of JNK phosphorylation preadministered orally with compound for 3 days followed by LPS stimulation for 6 hrs after 1 hrs compound administration on day 3 by Western blot analysis; format: functional; conditions: dose 5-20 mg/kg, route po, time 3.0 day
# Mus musculus [29] = assay: (§3) In vivo inhibition of NFkappaB activation in LPS-induced BALB/c mouse model of […] assessed as inhibition of NFkappaB degradation preadministered orally with compound for 3 days followed by LPS stimulation for 6 hrs after 1 hrs compound administration on day 3 by Western blot analysis; format: functional; conditions: dose 5-20 mg/kg, route po, time 3.0 day
# Mus musculus [30] = assay: as §3, with “inhibition of IkappaBalpha degradation preadministered” for “inhibition of NFkappaB degradation preadministered”; format: functional; conditions: dose 5-20 mg/kg, route po, time 3.0 day
# Mus musculus [31] = assay: as §3, with “NLRP3 inflammasome” for “NFkappaB”, “reduction in NLRP3 expression” for “inhibition of NFkappaB degradation”; format: functional; conditions: dose 5-20 mg/kg, route po, time 3.0 day
# Mus musculus [32] = assay: as §3, with “NLRP3 inflammasome” for “NFkappaB”, “reduction in caspase-1 expression” for “inhibition of NFkappaB degradation”; format: functional; conditions: dose 5-20 mg/kg, route po, time 3.0 day
# Mus musculus [33] = assay: as §3, with “NLRP3 inflammasome” for “NFkappaB”, “reduction in IL-1beta expression” for “inhibition of NFkappaB degradation”; format: functional; conditions: dose 5-20 mg/kg, route po, time 3.0 day
# RAW264.7 [34] = assay: cells; conditions: Mus musculus
# Description: Anti-inflammatory activity in mouse RAW264.7 cells assessed as inhibition of LPS-induced NO production preincubated with compound for 1 hrs followed by LPS stimulation and measured after 23 hrs by Griess reagent based method
# RAW264.7 [35] = assay: cells; conditions: Mus musculus; remark: listed apart in the source
# Description: Anti-inflammatory activity in mouse RAW264.7 cells assessed as inhibition of LPS-induced IL-6 production preincubated with compound for 1 hrs followed by LPS stimulation and measured after 23 hrs by ELISA
# RAW264.7 [36] = assay: cells; conditions: Mus musculus; remark: listed apart in the source
# Description: Anti-inflammatory activity in mouse RAW264.7 cells assessed as inhibition of LPS-induced TNF-alpha production preincubated with compound for 1 hrs followed by LPS stimulation and measured after 23 hrs by ELISA
# NACHT, LRR and PYD domains-containing protein 3 (Mus musculus), sequence (Q8R4B8 whole entry, the tested form may be a part): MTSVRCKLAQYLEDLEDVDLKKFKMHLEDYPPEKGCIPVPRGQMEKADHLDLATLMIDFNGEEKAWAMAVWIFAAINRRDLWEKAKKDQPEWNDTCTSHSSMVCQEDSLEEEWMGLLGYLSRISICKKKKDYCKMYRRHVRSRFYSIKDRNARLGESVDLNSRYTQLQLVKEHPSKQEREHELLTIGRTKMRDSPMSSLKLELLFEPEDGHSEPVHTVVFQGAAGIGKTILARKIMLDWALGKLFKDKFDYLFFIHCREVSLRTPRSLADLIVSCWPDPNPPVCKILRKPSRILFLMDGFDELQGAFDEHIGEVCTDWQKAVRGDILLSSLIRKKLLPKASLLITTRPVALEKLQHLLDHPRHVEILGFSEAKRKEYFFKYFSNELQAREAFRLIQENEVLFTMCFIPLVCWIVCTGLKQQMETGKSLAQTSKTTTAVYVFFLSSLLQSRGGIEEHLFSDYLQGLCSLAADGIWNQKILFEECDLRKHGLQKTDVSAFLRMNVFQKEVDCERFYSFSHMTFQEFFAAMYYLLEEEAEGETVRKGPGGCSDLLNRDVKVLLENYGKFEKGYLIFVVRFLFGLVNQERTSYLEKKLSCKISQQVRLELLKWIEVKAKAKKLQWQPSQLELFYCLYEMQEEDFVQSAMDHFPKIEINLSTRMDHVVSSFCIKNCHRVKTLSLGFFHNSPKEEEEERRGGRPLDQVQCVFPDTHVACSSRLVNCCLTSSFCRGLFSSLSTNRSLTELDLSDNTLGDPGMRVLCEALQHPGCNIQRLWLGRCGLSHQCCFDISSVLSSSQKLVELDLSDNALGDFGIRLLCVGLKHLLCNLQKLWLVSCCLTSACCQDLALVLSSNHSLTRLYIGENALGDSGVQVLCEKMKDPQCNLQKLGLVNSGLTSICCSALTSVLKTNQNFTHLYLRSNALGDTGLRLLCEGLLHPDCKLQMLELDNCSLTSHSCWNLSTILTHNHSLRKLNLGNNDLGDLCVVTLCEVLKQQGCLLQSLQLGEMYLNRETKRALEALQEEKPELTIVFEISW
structure (smiles),measurement,setting,value
CC(=O)O[C@H]1C[C@@]2(C)[C@@H](C[C@@H](O)[C@H]3[C@@]4(C)CC[C@@H](O)[C@@H](C)[C@@H]4CC[C@@]32C)/C1=C(\CCC=C(C)C)C(=O)OCc1cn(-c2ccccc2)nn1,Activity,RAW264.7 [1],102.79%
same,IC50 at 24 h,[2],94.3 µM
same,Activity,RAW264.7 [3],Dose-Dependent Effect
same,Activity,RAW264.7 [4],Dose-Dependent Effect
same,inhibition,RAW264.7 [5],Active
same,inhibition,RAW264.7 [6],Active
same,inhibition,RAW264.7 [7],Active
same,inhibition,RAW264.7 [8],Active
same,inhibition,RAW264.7 [9],Active
same,inhibition,[10],Active
same,inhibition,[11],Dose-Dependent Effect
same,inhibition,[12],Dose-Dependent Effect
same,Activity,RAW264.7 [13],Dose-Dependent Effect
same,Activity,RAW264.7 [14],Active
same,Activity,Mus musculus [15],Active
same,Activity,Mus musculus [16],Active
same,Activity,Mus musculus [17],Active
same,Activity,Mus musculus [18],Active
same,Activity,Mus musculus [19],Active
same,Activity,Mus musculus [20],Active
same,Activity,Mus musculus [21],Active
same,Activity,Mus musculus [22],Active
same,Activity,Mus musculus [23],Active
same,Activity,Mus musculus [24],Dose-Dependent Effect
same,Activity,Mus musculus [25],Dose-Dependent Effect
same,inhibition,Mus musculus [26],Dose-Dependent Effect
same,inhibition,Mus musculus [27],Dose-Dependent Effect
same,inhibition,Mus musculus [28],Dose-Dependent Effect
same,inhibition,Mus musculus [29],Dose-Dependent Effect
same,inhibition,Mus musculus [30],Dose-Dependent Effect
same,inhibition,Mus musculus [31],Dose-Dependent Effect
same,inhibition,Mus musculus [32],Dose-Dependent Effect
same,inhibition,Mus musculus [33],Dose-Dependent Effect
same,IC50,RAW264.7 [34],3.26 µM
same,IC50,RAW264.7 [35],1.85 µM
same,IC50,RAW264.7 [36],3.88 µM

# From ChEMBL document CHEMBL5625219, “Design, synthesis fusidic acid derivatives alleviate acute lung injury via inhibiting MAPK/NF-κB/NLRP3 pathway” (Eur J Med Chem, 2023)
